# Assay results: patent US20120264603A1, “ATTACHMENT AND RETENTION FORMULATIONS FOR BIOLOGICALLY ACTIVE ORGANIC COMPOUNDS” (priority 2010, published 2012)
# Test: Water solubility of sulfentrazone as a function of pH
# Format: physicochemical
structure (smiles),measurement,setting,value
Cc1nn(-c2cc(NS(C)(=O)=O)c(Cl)cc2Cl)c(=O)n1C(F)F [sulfentrazone],solubility in water,at 7.5 pH,soluble in water
same,solubility in water,pH ~5,sparingly soluble in water
